Results: US11248013B2, “Tricyclic inhibitors of poly(ADP-ribose)polymerase” (Rakovina Therapeutics Inc., priority 2011, dated 2022)

These compounds were tested against PARP-1 (Homo sapiens (Human), UniProt P09874) (assay: PARP-1 Enzyme Assay (HT Universal Colorimetric PARP Assay Kit)). Conditions: OD450, read-out: IC50 (PARP-1 inhibition).
Assay type: biochemical
Experimental: Inhibition of PARP-1 enzymatic activities was measured using an HT Universal Colorimetric PARP Assay Kit (Trevigen, catalogue #4677-096-K) following the standard procedures.
Serial dilutions of PARP compounds were added to appropriate wells. The compound was incubated with PARP enzyme at RT for 10 min, and the reaction was initiated by addition of the PARP substrate cocktail, Each concentration of compound was tested in triplicate wells. After 15 min reaction, the reaction was stopped, and the Strep-HRP was added into each well and incubated for 1 h at RT. After addition of TACS-Sapphire™ colorimetric substrate and incubated in dark for 15 min, the OD450 was read out with an EnVision instrument. IC50 values (the concentration at which 50% of the enzyme activity is inhibited) were calculated, which are determined over a range of different concentrations, normally from 10 μM to 0.1 nM.

PARP-1, sequence (P09874 whole entry): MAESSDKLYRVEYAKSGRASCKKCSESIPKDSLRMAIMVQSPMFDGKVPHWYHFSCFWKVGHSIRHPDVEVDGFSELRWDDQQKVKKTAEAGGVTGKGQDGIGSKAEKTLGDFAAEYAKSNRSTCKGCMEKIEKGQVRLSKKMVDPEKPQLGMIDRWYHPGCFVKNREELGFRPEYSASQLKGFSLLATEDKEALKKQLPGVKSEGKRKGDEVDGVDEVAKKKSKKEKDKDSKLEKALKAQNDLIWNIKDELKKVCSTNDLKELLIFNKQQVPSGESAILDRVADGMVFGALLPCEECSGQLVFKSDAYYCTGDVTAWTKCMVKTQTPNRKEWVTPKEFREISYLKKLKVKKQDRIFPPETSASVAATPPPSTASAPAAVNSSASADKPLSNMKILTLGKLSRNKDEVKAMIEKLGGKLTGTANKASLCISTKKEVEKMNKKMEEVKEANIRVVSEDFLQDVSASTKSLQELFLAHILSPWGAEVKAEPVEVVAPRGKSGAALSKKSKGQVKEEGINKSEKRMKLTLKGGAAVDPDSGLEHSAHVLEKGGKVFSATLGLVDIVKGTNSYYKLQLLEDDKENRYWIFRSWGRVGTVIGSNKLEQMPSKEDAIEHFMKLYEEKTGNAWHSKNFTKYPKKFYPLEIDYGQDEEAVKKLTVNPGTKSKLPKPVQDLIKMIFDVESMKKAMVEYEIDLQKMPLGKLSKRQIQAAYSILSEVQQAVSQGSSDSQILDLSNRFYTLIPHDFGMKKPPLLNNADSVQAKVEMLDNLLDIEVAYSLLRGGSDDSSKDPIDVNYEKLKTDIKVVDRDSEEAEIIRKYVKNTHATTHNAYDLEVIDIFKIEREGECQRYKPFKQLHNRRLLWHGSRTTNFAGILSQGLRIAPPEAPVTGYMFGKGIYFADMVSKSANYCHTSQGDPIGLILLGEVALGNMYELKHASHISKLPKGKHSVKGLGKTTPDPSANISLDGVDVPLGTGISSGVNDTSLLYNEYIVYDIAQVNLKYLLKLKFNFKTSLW

Compound | IC50
CC(C)CCN1CCP(=O)(c2cc(Cc3n[nH]c(=O)c4ccccc34)ccc2F)CC1 [Example 48] | < 100 nM
O=c1[nH]nc(Cc2ccc(F)c(P3(=O)CCN(c4ncccc4C(F)(F)F)CC3)c2)c2ccccc12 [Example 27, 4-(4-fluoro-3-(4-oxido-1-(3-(trifluoromethyl)pyridin-2-yl)-1,4-azaphosphinan-4-yl)benzyl)phthalazin-1(2H)-one] | 100 to 1000 nM
(+)-4-[[4-fluoro-3-(4-oxido-1-(pyrimidin-2-yl)-1,4-azaphosphinan-4-yl)phenyl)](hydroxymethyl)]-7-fluorophthalazin-1(2H)-one [Example 59] | < 100 nM
O=c1[nH]nc(Cc2ccc(F)c(P3(=O)CCN(c4ccnc(Cl)n4)CC3)c2)c2ccccc12 [Example 17, 4-(3-(1-(2-chloropyrimidin-4-yl)-4-oxido-1,4-azaphosphinan-4-yl)-4-fluorobenzyl)phthalazin-1(2H)-one] | < 100 nM
4-(4-fluoro-3-(4-oxido-1-pivaloyl-1,4-azaphosphinan-4-yl)benzyl)phthalazin-1(2H)-one [Example 8] | < 100 nM
O=c1[nH]nc(Cc2ccc(F)c(P3(=O)CCN(C4CCC4)CC3)c2)c2ccccc12 [Example 39, 4-(3-(1-cyclobutyl-4-oxido-1,4-azaphosphinan-4-yl)-4-fluorobenzyl)phthalazin-1(2H)-one] | < 100 nM
O=c1[nH]nc(Cc2ccc(F)c(P3(=O)CCN(c4ncccc4F)CC3)c2)c2ccccc12 [Example 23, 4-(4-fluoro-3-(1-(3-fluoropyridin-2-yl)-4-oxido-1,4-azaphosphinan-4-yl)benzyl)phthalazin-1(2H)-one] | < 100 nM
CP1(=O)CCN(C(=O)c2cc(Cc3n[nH]c(=O)c4ccccc34)ccc2F)CC1 [Example 50, 4-[[4-fluoro-3-(4-methyl-4-oxo-1,4-azaphosphinane-1-carbonyl)phenyl]methyl]-2H-phthalazin-1-one] | < 100 nM
[2H]C([2H])(c1ccc(F)c(P2(=O)CCN(c3ncccn3)CC2)c1)c1n[nH]c(=O)c2cc(F)ccc12 [Example 57, 4-[(4-fluoro-3-(4-oxido-1-(pyrimidin-2-yl)-1,4-azaphosphinan-4-yl)phenyl)dideuteromethyl]-7-fluorophthalazin-1(2H)-one] | < 100 nM
O=c1[nH]nc(Cc2ccc(F)c(P3(=O)CCN(c4ncc(Cl)cn4)CC3)c2)c2ccccc12 [Example 36, 4-(4-fluoro-3-(4-oxido-1-(5-(chloro)pyrimidin-2-yl)-1,4-azaphosphinan-4-yl)benzyl)phthalazin-1(2H)-one] | < 100 nM
4-(3-(1-(cyclopropanecarbonyl)-4-oxido-1,4-azaphosphinan-4-yl)-4-fluorobenzyl)phthalazin-1(2H)-one [Example 3] | < 100 nM
O=c1[nH]nc(Cc2ccc(F)c(P3(=O)CCN(CC4CC4)CC3)c2)c2ccccc12 [Example 43, 4-(3-(1-(cyclopropylmethyl)-4-oxido-1,4-azaphosphinan-4-yl)-4-fluorobenzyl)phthalazin-1(2H)-one] | < 100 nM
CN1CCP(=O)(c2cc(Cc3n[nH]c(=O)c4ccccc34)ccc2F)CC1 [Example 40, 4-(4-fluoro-3-(1-methyl-4-oxido-1,4-azaphosphinan-4-yl)benzyl)phthalazin-1(2H)-one] | 100 to 1000 nM
O=c1[nH]nc(Cc2ccc(F)c(P3(=O)CCN(c4nccc(Cl)n4)CC3)c2)c2ccccc12 [Example 18, 4-(3-(1-(4-chloropyrimidin-2-yl)-4-oxido-1,4-azaphosphinan-4-yl)-4-fluorobenzyl)phthalazin-1(2H)-one] | < 100 nM
O=c1[nH]nc(Cc2ccc(F)c(P3(=O)CCN(c4ncc(F)cc4F)CC3)c2)c2ccccc12 [Example 28, 4-(4-fluoro-3-(1-(3,5-difluoropyridin-2-yl)-4-oxido-1,4-azaphosphinan-4-yl)benzyl)phthalazin-1(2H)-one] | < 100 nM
O=c1[nH]nc(Cc2ccc(F)c(P3(=O)CCN(Cc4ccccc4)CC3)c2)c2ccccc12 [Example 1, 4-(3-(1-benzyl-4-oxido-1,4-azaphosphinan-4-yl)-4-fluorobenzyl)phthalazin-1(2H)-one] | < 100 nM
CC(C)(C)CN1CCP(=O)(c2cc(Cc3n[nH]c(=O)c4ccccc34)ccc2F)CC1 [Example 47, 4-(4-fluoro-3-(1-neopentyl-4-oxido-1,4-azaphosphinan-4-yl)benzyl)phthalazin-1(2H)-one] | 100 to 1000 nM
O=C(C1CCCC1)N1CCP(=O)(c2cc(Cc3n[nH]c(=O)c4ccccc34)ccc2F)CC1 [Example 2, 4-(3-(1-(cyclopentanecarbonyl)-4-oxido-1,4-azaphosphinan-4-yl)-4-fluorobenzyl)phthalazin-1 (2H)-one] | 1000 to 10000 nM
N#Cc1cccnc1N1CCP(=O)(c2cc(Cc3n[nH]c(=O)c4ccccc34)ccc2F)CC1 [Example 16, 2-(4-(2-fluoro-5-((4-oxo-3,4-dihydrophthalazin-1-yl)methyl)phenyl)-4-oxido-1,4-azaphosphinan-1-yl)nicotinonitrile] | < 100 nM
O=c1[nH]nc(Cc2ccc(F)c(P3(=O)CCN(c4cccc(C(F)(F)F)n4)CC3)c2)c2ccccc12 [Example 31, 4-(4-fluoro-3-(4-oxido-1-(6-(trifluoromethyl)pyridin-2-yl)-1,4-azaphosphinan-4-yl)benzyl)phthalazin-1(2H)-one] | 100 to 1000 nM
4-(3-(1-(3-chloro-5-(trifluoromethyl)pyridin-2-yl)-4-oxido-1,4-azapbosphinan-4-yl)-4-fluorobenzyl)phthalazin-1(2H)-one [Example 20] | 100 to 1000 nM
O=c1[nH]nc(Cc2ccc(F)c(P3(=O)CCN(c4ncccn4)CC3)c2)c2ccc(F)cc12 [Example 56, 4-(4-fluoro-3-(4-oxido-1-(pyrimidin-2-yl)-1,4-azaphosphinan-4-yl)benzyl)-7-fluorophthalazin-1(2H)-one] | < 100 nM
CCCN1CCP(=O)(c2cc(Cc3n[nH]c(=O)c4ccccc34)ccc2F)CC1 [Example 45] | < 100 nM

What follows are compounds tested against intracellular PARP enzyme (Homo sapiens, UniProt P09874) (assay: PARP Cell Assay (IHC, intracellular poly(ADP)-ribose formation in C41 cells)). Conditions: C41 cells (Human cervical carcinoma), 2 h compound, 1.0 mM H2O2 for 10 min; read-out: EC50 (TARP cell assay).
Assay type: cell-based
Experimental: Inhibition of intracellular PARP enzyme was determined using an immunohistochemistry (IHC) assay. The cellular assay measures the formation of poly (ADP)-ribose catalyzed by PARP inside cells.
Anti-PAR (Ab-1) Mouse mAb (10H) (Calbiochem, AM-80); Anti-Mouse IgG (whole molecule)-FITC antibody produced in goat (sigma, F2012); DAPI (sigma, D9542).
The C41 cells (Human cervical carcinoma; ATCC No. CRL-1594) were planted into 96-well plates at 8.0E4 cells/well and incubated at 37° C. overnight. Cells were washed with 37° C. warmed PBS once and treated with test compounds for 2 h in 96-well plates. Cells were washed with 37° C. warmed PBS once, and PARP was activated by damaging DNA with 1.0 mM H2O2 for 10 min. Cells were washed with ice-cold PBS once and fixed with pre-chilled methanol/acetone (7:3) at −20° C. for 10 min. After air-drying, plates were rehydrated with PBS and blocked using 5% nonfat dry milk in PBS-Tween (0.05%) (block solution) for 30 min at room temperature. […] After washing with PBS-Tween20.5 times, analysis was performed using Vector 3 Microplate Reader (PerkinElmer) set at the excitation (485 nm) and emission (535 nm) wavelength for FITC or the excitation (364 nm) and emission (454 nm) wavelength for DAPI. […]

intracellular PARP enzyme, sequence (P09874 2-1014 limits assumed): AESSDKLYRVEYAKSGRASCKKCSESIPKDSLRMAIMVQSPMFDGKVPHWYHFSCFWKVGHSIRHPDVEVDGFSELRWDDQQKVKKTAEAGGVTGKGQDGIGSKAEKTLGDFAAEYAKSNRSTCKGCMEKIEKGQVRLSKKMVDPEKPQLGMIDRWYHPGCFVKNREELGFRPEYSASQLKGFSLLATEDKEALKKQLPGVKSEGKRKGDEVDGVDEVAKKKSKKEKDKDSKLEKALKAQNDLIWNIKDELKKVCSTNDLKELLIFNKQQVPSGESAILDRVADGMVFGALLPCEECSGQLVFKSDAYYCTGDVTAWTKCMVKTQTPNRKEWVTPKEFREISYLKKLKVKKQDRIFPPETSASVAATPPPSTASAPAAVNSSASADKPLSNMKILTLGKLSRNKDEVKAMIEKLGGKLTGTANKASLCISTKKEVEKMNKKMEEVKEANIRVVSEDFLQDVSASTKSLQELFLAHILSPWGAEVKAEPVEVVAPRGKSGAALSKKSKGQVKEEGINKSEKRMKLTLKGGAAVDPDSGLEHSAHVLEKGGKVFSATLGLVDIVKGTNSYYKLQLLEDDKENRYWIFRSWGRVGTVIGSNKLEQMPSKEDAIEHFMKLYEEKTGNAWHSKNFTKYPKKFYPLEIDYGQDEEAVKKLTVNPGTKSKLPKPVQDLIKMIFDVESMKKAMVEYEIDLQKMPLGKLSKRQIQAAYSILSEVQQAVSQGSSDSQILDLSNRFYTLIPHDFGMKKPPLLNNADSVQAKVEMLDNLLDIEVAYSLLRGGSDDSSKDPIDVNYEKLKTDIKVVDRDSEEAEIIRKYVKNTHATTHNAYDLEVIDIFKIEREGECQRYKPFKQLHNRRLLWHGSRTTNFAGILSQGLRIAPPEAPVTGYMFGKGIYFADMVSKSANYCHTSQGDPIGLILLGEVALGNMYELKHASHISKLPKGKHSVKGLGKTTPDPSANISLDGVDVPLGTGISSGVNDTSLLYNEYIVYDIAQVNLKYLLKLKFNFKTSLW

Compound | EC50
CC(C)CCN1CCP(=O)(c2cc(Cc3n[nH]c(=O)c4ccccc34)ccc2F)CC1 [Example 48] | 100 to 1000 nM
